These results are taken from US11932628B2, “Selective small molecule peptidomimetic melanocortin ligands” (REGENTS OF THE UNIVERSITY OF MINNESOTA, priority 2021, dated 2024).

For one assay, the target named is mMC1R (Mus musculus, UniProt Q01727). Nature of the assay: cAMP based functional bioassay (CRE/β-galactosidase reporter), agonist activity at mMC1R. Particulars: for mMC1R Activity @ 10 μM (class) / mMC1R Activity @ 10 μM (relative activity, percent): reported where receptor not activated to full activity.
The next assay deals with mMC5R (Mus musculus, UniProt P41149). Nature of the assay: cAMP based functional bioassay (CRE/β-galactosidase reporter), agonist activity at mMC5R. Particulars: for mMC5R Activity @ 10 μM (class) / mMC5R Activity @ 10 μM (relative activity, percent): reported where receptor not activated to full activity.
The next assay concerns the target mMC3R (Mus musculus, UniProt P33033). As to the kind of experiment: cAMP based functional bioassay (CRE/β-galactosidase reporter), agonist activity at mMC3R. Particulars: for mMC3R Activity @ 10 μM (class) / mMC3R Activity @ 10 μM (relative activity, percent): reported where receptor not activated to full activity.
Another assay deals with mMC4R (Mus musculus, UniProt P56450). Nature of the assay: cAMP based functional bioassay (CRE/β-galactosidase reporter), agonist activity at mMC4R. Particulars: for mMC4R Activity @ 10 μM (class) / mMC4R Activity @ 10 μM (relative activity, percent): reported where receptor not activated to full activity.

Like-named read-outs stand apart in the source and are kept apart here.

Sequence of mMC1R (Q01727 whole entry): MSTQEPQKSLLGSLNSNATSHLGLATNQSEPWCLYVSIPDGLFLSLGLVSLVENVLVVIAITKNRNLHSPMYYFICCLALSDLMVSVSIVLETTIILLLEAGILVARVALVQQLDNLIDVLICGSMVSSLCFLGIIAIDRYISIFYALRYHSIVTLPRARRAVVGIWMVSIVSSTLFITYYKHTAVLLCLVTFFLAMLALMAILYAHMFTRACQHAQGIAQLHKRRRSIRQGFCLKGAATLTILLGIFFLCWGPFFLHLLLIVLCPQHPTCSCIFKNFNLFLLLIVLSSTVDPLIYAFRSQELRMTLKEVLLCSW
Sequence of mMC5R (P41149 whole entry): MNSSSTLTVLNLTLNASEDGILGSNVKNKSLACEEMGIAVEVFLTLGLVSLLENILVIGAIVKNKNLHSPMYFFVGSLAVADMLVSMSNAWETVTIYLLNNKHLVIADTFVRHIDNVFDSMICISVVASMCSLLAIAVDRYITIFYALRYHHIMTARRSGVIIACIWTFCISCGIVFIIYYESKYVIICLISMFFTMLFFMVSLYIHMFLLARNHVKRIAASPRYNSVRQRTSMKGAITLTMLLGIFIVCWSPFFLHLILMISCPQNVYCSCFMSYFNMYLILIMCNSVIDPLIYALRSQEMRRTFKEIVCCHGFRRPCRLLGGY
Sequence of mMC3R (P33033 whole entry): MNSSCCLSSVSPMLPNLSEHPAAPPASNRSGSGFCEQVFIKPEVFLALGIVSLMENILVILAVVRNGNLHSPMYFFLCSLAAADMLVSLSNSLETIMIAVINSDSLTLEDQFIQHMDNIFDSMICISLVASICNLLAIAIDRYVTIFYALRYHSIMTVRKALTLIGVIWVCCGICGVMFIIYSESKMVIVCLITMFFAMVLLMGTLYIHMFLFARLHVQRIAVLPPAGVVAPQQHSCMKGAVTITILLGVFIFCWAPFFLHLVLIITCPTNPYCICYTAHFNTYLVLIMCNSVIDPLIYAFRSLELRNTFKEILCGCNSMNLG
Sequence of mMC4R (P56450 whole entry): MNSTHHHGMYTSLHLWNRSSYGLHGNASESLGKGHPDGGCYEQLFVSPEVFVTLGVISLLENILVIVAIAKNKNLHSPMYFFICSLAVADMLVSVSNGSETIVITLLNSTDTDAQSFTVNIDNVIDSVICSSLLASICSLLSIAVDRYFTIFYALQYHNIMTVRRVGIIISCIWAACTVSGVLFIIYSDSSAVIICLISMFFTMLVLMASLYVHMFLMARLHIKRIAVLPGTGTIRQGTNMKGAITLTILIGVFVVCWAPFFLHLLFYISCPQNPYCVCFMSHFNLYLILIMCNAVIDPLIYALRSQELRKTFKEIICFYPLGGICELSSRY
Method for mMC1R: (§1) The compounds were evaluated using a whole cell assay.
(§2) Compounds were dissolved in DMSO at a stock concentration of 10^−2 M and stored at −20° C. until assayed. HEK-293 cells stably expressing the selected melanocortin receptors were transiently transfected with 4 μg of CRE/β-galactosidase reporter gene. Briefly, 5000-15000 post transfection cells were plated into collagen treated 96-well plates (Nunc) and incubated overnight. […] The assay media was aspirated, and 50 μL of lysis buffer (250 mM Tris-HCl pH=8.0 and 0.1% Triton X-100) was added. The plates were stored at −80° C. overnight. The plates containing the cell lysates were thawed the following day. Aliquots of 10 μL were taken from each well and transferred to another 96-well plate for relative protein determination. To the cell lysate plates, 40 μL of phosphate-buffered saline with 0.5% BSA was added to each well. Subsequently, 150 μL of substrate buffer (60 mM sodium phosphate, 1 mM MgCl2, 10 mM KCl, 5 mM β-mercaptoethanol, 2 mg/mL ONPG) was added to each well and the plates were incubated at 37° C. The sample absorbance, OD405, was measured using a 96-well plate reader (Molecular Devices). The relative protein was determined by adding 200 μL of 1:5 dilution BioRad G250 protein dye:water to the 10 μL of cell lysate sample taken previously, and the OD595 was measured on a 96-well plate reader (Molecular Devices). Data points were normalized to forskolin and the relative protein content were used as positive controls. The EC50 values represent the mean of three or more independent experiments. The EC50 estimates, and their associated standard errors of the mean, were determined by fitting the data to a nonlinear least-squares analysis using the PRISM program (v4.0, GraphPad Inc.).
(§3) The results are tabulated in the form of EC50 values. In the case where the particular receptor was not activated to full activity at 100,000 nM, then the relative activity was reported.
Method for mMC3R: as §1, §2, §3
Method for mMC4R: as §1, §2, §3
Method for mMC5R: as §1, §2, §3

On to `CCC[C@@H]1CN([C@H](Cc2ccccc2)CN2CCC[C@H]2CN2C(=N)NC[C@H]2CC(C)C)C(=N)N1CC12CC3CC(CC(C3)C1)C2` [TPI 2509-16, (R)-3-(adamantan-1-ylmethyl)-1-((R)-1-((S)-2-(((R)-2-imino-5-isobutylimidazolidin-1-yl)methyl)pyrrolidin-1-yl)-3-phenylpropan-2-yl)-4-propylimidazolidin-2-imine], for which the values for the EC50 on mMC1R, at mMC5R and on mMC4R were 7000 ± 6100 nM, 610 ± 160 nM and 1330 ± 510 nM, respectively. Moreover, the “mMC3R Activity @ 10 μM (class)” value on mMC3R is listed as “B (B: >51%)”. The “mMC3R Activity @ 10 μM (relative activity, percent)” value at mMC3R is given as 74%.

Consider `CC(C)CCCN1C(=N)N([C@H](CC2CCCCC2)CN2CCC[C@H]2CN2C(=N)NC[C@H]2CC(C)C)C[C@H]1[C@H](C)O` [TPI 2509-6], for which the values for the concentration giving a half-maximal response (EC50) on mMC1R and at mMC5R were 7300 ± 4400 nM and 630 ± 50 nM, respectively. Besides, the “mMC3R Activity @ 10 μM (class)” value at mMC3R is “B (B: >51%)”. The “mMC3R Activity @ 10 μM (relative activity, percent)” value on mMC3R is reported as 58%. Further, the “mMC4R Activity @ 10 μM (class)” value at mMC4R is reported as “A (A: <50%)”.

`CCC[C@@H]1CN([C@H](Cc2ccccc2)CN2CCC[C@H]2CN2C(=N)NC[C@H]2C(C)C)C(=N)N1CCCC(C)C` [TPI 2509-36, (R)-1-((R)-1-((S)-2-(((R)-2-imino-5-isopropylimidazolidin-1-yl)methyl)pyrrolidin-1-yl)-3-phenylpropan-2-yl)-3-(4-methylpentyl)-4-propylimidazolidin-2-imine]: the EC50 on mMC1R is 22900 ± 10000 nM. Moreover, the response on mMC5R was half-maximal at 2030 ± 980 nM (EC50). At mMC4R, the “mMC4R Activity @ 10 μM (class)” value is “A (A: <50%)” and the “mMC4R Activity @ 10 μM (relative activity, percent)” value worked out at 41%.

Regarding `CC(C)CCCN1C(=N)N([C@H](CC2CCCCC2)CN2CCC[C@H]2CN2C(=N)NC[C@H]2C(C)C)C[C@H]1[C@@H](C)O` [TPI 2509-24, (R)-1-((S)-1-((R)-1-cyclohexyl-3-((S)-2-(((R)-2-imino-5-isopropylimidazolidin-1-yl)methyl)pyrrolidin-1-yl)propan-2-yl)-2-imino-3-(4-methylpentyl)imidazolidin-4-yl)ethanol], the EC50 on mMC1R is 700 ± 80 nM; at mMC5R, 740 ± 270 nM; on mMC3R, 5200 ± 1540 nM.

Regarding `CC(C)CCCN1C(=N)N([C@H](Cc2ccccc2)CN2CCC[C@H]2CN2C(=N)NC[C@H]2C(C)C)C[C@H]1C(C)C` [TPI 2509-39, (R)-1-((R)-1-((S)-2-(((R)-2-imino-5-isopropylimidazolidin-1-yl)methyl)pyrrolidin-1-yl)-3-phenylpropan-2-yl)-4-isopropyl-3-(4-methylpentyl)imidazolidin-2-imine], the EC50 at mMC1R was 10200 ± 6570 nM. Also, a half-maximal response on mMC5R (EC50) required 1600 ± 460 nM. Further, at mMC4R, the “mMC4R Activity @ 10 μM (class)” value is given as “A (A: <50%)” and the “mMC4R Activity @ 10 μM (relative activity, percent)” value is 21%.

Compound `CC(C)[C@@H]1CNC(=N)N1C[C@@H]1CCCN1C[C@@H](Cc1ccccc1)N1C[C@@H](C(C)C)N(CC2CCC(C(C)(C)C)CC2)C1=N` (stereo partly drawn) [TPI 2509-38, (R)-3-((4-(tert-butyl)cyclohexyl)methyl)-1-((R)-1-((S)-2-(((R)-2-imino-5-isopropylimidazolidin-1-yl)methyl)pyrrolidin-1-yl)-3-phenylpropan-2-yl)-4-isopropylimidazolidin-2-imine] had an EC50 at mMC1R of 29100 ± 20000 nM. The same compound displayed an EC50 at mMC5R of 600 ± 170 nM. Besides, at mMC3R, the “mMC3R Activity @ 10 μM (class)” value is “B (B: >51%)” and the “mMC3R Activity @ 10 μM (relative activity, percent)” value is reported as 68%.

On to `CC(C)CCCN1C(=N)N([C@H](Cc2ccccc2)CN2CCC[C@H]2CN2C(=N)NC[C@H]2C(C)C)C[C@H]1[C@@H](C)O` [TPI 2509-33, (R)-1-((S)-2-imino-1-((R)-1-((S)-2-(((R)-2-imino-5-isopropylimidazolidin-1-yl)methyl)pyrrolidin-1-yl)-3-phenylpropan-2-yl)-3-(4-methylpentyl)imidazolidin-4-yl)ethanol], for which the “mMC1R Activity @ 10 μM (class)” value on mMC1R is given as “B (B: >51%)”. Further, on mMC5R, the “mMC5R Activity @ 10 μM (class)” value is reported as “A (A: <50%)” and the “mMC5R Activity @ 10 μM (relative activity, percent)” value worked out at 40%.

For the compound `CC(C)C[C@@H]1CNC(=N)N1C[C@@H]1CCCN1C[C@@H](Cc1ccccc1)N1C[C@@H](C(C)C)N(CC2CCC(C(C)(C)C)CC2)C1=N` (stereo partly drawn) [TPI 2509-20, (R)-3-((4-(tert-butyl)cyclohexyl)methyl)-1-((R)-1-((S)-2-(((R)-2-imino-5-isobutylimidazolidin-1-yl)methyl)pyrrolidin-1-yl)-3-phenylpropan-2-yl)-4-isopropylimidazolidin-2-imine], on mMC1R, the EC50 was 6800 ± 600 nM. The same compound came in with an EC50 on mMC5R of 560 ± 170 nM. Besides, at mMC3R, the “mMC3R Activity @ 10 μM (class)” value was “B (B: >51%)” and the “mMC3R Activity @ 10 μM (relative activity, percent)” value stood at 62%.

`CC(C)CCCN1C(=N)N([C@H](Cc2ccccc2)CN2CCC[C@H]2CN2C(=N)NC[C@H]2CC(C)C)C[C@H]1C(C)C` [TPI 2509-21, (R)-1-((R)-1-((S)-2-(((R)-2-imino-5-isobutylimidazolidin-1-yl)methyl)pyrrolidin-1-yl)-3-phenylpropan-2-yl)-4-isopropyl-3-(4-methylpentyl)imidazolidin-2-imine] displayed an EC50 at mMC5R of 1260 ± 130 nM. Also, the “mMC3R Activity @ 10 μM (class)” value on mMC3R was “A (A: <50%)”. In addition, the “mMC4R Activity @ 10 μM (class)” value at mMC4R is “A (A: <50%)”.

Take `CCC[C@@H]1CN([C@H](Cc2ccccc2)CN2CCC[C@H]2CN2C(=N)NC[C@H]2CC(C)C)C(=N)N1CCCC(C)C` [TPI 2509-18, (R)-1-((R)-1-((S)-2-(((R)-2-imino-5-isobutylimidazolidin-1-yl)methyl)pyrrolidin-1-yl)-3-phenylpropan-2-yl)-3-(4-methylpentyl)-4-propylimidazolidin-2-imine]: at mMC5R, the EC50 worked out at 2180 ± 625 nM. For the same compound, the “mMC4R Activity @ 10 μM (class)” value on mMC4R is “B (B: >51%)”.

Turning to `CC(=O)N[C@@H](Cc1c[nH]cn1)C(=O)N[C@H](Cc1ccccc1)C(=O)N[C@@H](CCCNC(=N)N)C(=O)N[C@@H](Cc1c[nH]c2ccccc12)C(N)=O` [Ac-His-DPhe-Arg-Trp-NH2, reference compound], the EC50 amounted to 4.2 ± 1 nM on mMC5R (read-out: mMC5R Mean ± SEM (agonist EC50), HEK-293 cells, mean of three or more experiments) and 5.5 ± 0.8 nM at mMC4R (read-out: mMC4R Mean ± SEM (agonist EC50), HEK-293 cells, mean of three or more experiments).

As to `CC(C)C[C@@H]1CNC(=N)N1C[C@@H]1CCCN1C[C@@H](CC1CCCCC1)N1C[C@@H](C(C)C)N(CC2CCC(C(C)(C)C)CC2)C1=N` (stereo partly drawn) [TPI 2509-11, (R)-3-((4-(tert-butyl)cyclohexyl)methyl)-1-((R)-1-cyclohexyl-3-((S)-2-(((R)-2-imino-5-isobutylimidazolidin-1-yl)methyl)pyrrolidin-1-yl)propan-2-yl)-4-isopropylimidazolidin-2-imine], at mMC1R, the “mMC1R Activity @ 10 μM (class)” value is “B (B: >51%)” and the “mMC1R Activity @ 10 μM (relative activity, percent)” value is 54%. The compound further came in with an EC50 on mMC5R of 560 ± 50 nM. Further, on mMC3R, the “mMC3R Activity @ 10 μM (class)” value is listed as “B (B: >51%)” and the “mMC3R Activity @ 10 μM (relative activity, percent)” value turned out to be 69%.

Consider `CC(C)CCCN1C(=N)N([C@H](Cc2ccccc2)CN2CCC[C@H]2CN2C(=N)NC[C@H]2CC(C)C)C[C@H]1[C@@H](C)O` [TPI 2509-15, (R)-1-((S)-2-imino-1-((R)-1-((S)-2-(((R)-2-imino-5-isobutylimidazolidin-1-yl)methyl)pyrrolidin-1-yl)-3-phenylpropan-2-yl)-3-(4-methylpentyl)imidazolidin-4-yl)ethanol], for which, on mMC1R, the “mMC1R Activity @ 10 μM (class)” value is given as “B (B: >51%)” and the “mMC1R Activity @ 10 μM (relative activity, percent)” value was 62%. At mMC5R, the “mMC5R Activity @ 10 μM (class)” value was “B (B: >51%)” and the “mMC5R Activity @ 10 μM (relative activity, percent)” value is on record as 77%.

For orientation: EC50 means the midpoint of the concentration-response curve.
